Measurements taken from patent US10392368B2, “Pyrazolo and triazolo bicyclic compounds as JAK kinase inhibitors” (THERAVANCE BIOPHARMA R&D IP, LLC, priority 2017, dated 2019).
Where two headings read alike, the source gives them in different places.

Tests used:
[1] = tested on: IL-2 stimulated pSTAT5 in Tall-1 T cells; assay: Cellular JAK3 potency assay: inhibition of IL-2 stimulated pSTAT5 in Tall-1 T cells; type: cell-based, human; details: for IC50: Homo sapiens, read-out: Tall-1 (pIC50) (converted)
Summary of the method: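 In human Tall-1 T cells, IL-2 (300 ng/ml final, 30 min) drives STAT5 phosphorylation after a 1 h compound pretreatment. Lysates are assayed for pSTAT5 by AlphaLisa, and IC50 derived from signal versus concentration is expressed as pIC50.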

[2] = target: T1, JAK1 (Homo sapiens, UniProt P23458); assay: Biochemical JAK1 kinase assay (LanthaScreen); details: for Ki: read-out: JAK 1 (pKi) (converted)
T1 construct: GST; purchased Life Technologies
Summary of the method: (§1)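 Compounds were preincubated with the GST-tagged kinase and GFP-labelled STAT1 peptide for one hour before ATP initiated a one-hour reaction at ambient temperature. Phosphorylation was quantified by TR-FRET with a Tb-labelled pTyr701 antibody. Ki values were derived from IC50 using Cheng-Prusoff.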

[3] = target: T2, JAK3 (Homo sapiens, UniProt P52333); assay: Biochemical JAK3 kinase assay (LanthaScreen); design: GST; purchased Life Technologies; details: for Ki: read-out: JAK 3 (pKi) (converted)
T2 sequence (P52333 1-1124): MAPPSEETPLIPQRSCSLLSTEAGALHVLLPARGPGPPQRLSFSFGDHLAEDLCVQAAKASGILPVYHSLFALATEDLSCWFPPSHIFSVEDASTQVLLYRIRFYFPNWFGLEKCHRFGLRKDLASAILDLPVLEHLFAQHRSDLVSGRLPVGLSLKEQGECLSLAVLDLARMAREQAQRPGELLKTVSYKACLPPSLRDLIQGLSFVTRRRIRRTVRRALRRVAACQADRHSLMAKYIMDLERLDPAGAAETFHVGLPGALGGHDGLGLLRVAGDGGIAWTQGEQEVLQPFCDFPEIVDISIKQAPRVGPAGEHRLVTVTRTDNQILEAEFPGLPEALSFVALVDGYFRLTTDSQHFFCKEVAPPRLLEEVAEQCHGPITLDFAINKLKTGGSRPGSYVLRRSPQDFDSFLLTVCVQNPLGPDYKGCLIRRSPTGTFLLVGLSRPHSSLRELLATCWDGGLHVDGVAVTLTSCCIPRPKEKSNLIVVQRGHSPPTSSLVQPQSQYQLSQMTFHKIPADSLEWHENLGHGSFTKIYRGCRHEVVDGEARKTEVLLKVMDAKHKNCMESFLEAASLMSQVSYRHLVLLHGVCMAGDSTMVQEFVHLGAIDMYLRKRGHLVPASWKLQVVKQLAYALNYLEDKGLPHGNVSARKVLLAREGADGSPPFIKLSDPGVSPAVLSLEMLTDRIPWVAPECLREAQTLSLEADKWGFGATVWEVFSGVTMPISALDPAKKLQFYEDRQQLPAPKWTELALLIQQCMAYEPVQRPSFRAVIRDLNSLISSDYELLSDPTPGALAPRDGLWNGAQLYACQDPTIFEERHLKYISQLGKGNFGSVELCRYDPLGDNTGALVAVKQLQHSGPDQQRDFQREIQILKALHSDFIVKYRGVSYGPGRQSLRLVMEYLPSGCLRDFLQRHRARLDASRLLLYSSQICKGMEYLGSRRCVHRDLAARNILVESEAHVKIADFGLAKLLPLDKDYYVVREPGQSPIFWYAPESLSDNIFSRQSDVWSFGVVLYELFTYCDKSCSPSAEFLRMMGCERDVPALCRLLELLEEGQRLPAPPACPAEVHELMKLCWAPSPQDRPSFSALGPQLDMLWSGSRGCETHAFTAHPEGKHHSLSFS
Summary of the method: as §1

[4] = IL-2 stimulated pSTAT5, Tall-1 T cells
[5] = selectivity JAK3 over JAK1, difference of pKi
[6] = TALL-1, IL-2 stimulated pSTAT5 in Tall-1 T cells
[7] = selectivity: difference of pKi JAK3 and pKi JAK1
[8] = TALL-1, IL-2 stimulated pSTAT5, Tall-1 T cells
[9] = IL-2 stimulated pSTAT5 in Tall-1 T cells

T1 sequence (P23458 whole entry): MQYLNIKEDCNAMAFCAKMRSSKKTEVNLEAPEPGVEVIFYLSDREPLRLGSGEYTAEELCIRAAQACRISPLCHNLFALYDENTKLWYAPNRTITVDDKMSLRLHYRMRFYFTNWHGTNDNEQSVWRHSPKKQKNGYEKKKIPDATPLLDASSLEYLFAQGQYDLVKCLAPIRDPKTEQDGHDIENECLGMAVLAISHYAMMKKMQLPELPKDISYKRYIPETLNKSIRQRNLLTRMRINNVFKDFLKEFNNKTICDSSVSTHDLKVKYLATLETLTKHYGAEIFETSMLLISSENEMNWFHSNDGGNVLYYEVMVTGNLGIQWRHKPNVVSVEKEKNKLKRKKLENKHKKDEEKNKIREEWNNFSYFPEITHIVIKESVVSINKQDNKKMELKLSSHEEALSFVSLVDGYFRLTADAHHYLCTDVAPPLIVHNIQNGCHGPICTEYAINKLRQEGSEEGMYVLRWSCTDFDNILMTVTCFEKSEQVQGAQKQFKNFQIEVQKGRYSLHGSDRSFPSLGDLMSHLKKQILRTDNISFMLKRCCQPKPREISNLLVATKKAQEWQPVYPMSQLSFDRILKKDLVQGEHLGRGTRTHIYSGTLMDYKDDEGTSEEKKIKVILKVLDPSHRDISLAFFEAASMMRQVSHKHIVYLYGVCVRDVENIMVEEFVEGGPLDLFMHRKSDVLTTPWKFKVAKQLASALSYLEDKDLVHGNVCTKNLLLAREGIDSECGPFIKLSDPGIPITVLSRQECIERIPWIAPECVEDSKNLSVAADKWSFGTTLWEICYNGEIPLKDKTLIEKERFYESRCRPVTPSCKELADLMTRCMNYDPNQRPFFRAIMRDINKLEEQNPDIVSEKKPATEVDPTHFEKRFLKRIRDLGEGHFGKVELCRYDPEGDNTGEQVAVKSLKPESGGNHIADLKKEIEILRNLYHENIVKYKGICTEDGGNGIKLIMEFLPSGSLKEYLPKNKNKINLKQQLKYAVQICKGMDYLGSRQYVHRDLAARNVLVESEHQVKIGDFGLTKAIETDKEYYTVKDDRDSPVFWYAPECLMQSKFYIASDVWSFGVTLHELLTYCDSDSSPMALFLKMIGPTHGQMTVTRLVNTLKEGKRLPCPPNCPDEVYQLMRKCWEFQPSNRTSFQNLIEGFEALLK

| Compound | Tall-1 (pIC50) [1, 4] | JAK 1 (pKi) [2] | JAK 3 (pKi) [3] | JAK3 (pKi)-JAK1 (pKi) [3, 5] | IC50 [1, 6] | Ki [2] | Ki [3] | JAK3 (pKi)-JAK1 (pKi) [3, 7] | IC50 [1, 8] | Tall-1 (pIC50) [1, 9] |
| --- | --- | --- | --- | --- | --- | --- | --- | --- | --- | --- |
| C=CC(=O)N1CC2(CCC2Oc2nc(-c3ccc(O)c(Cl)c3)nc3[nH]ncc23)C1 (centres unmarked) [Compound 13-17] | B (a pIC50 value between 6.7 (included) and 7.5 (IC50 between 200 nM and 32 nM)) | E (a pKi value of 7 or below (Ki of 100 nM or above)) | A (a pKi value≥10 (Ki≤0.1 nM)) | A (a value of 3 or above) | – | – | – | – | – | – |
| CN(C)C/C=C/C(=O)N1CC[C@H](Oc2nc(-c3ccc(O)cc3)cc3[nH]ncc23)C1 [Compound 1-7] | – | – | – | – | 200 to 1000 nM | > 100 nM | 0.1 to 1 nM | B (a value of 2.3 to 3) | – | – |
| CN(C)C/C=C/C(=O)N1CCC(Oc2cc(-c3ccc(O)c(Cl)c3)cc3[nH]ncc23)CC1 [Compound 6-19] | – | – | – | B (a value of 2.3 to 3) | – | 10 to 100 nM | 0.1 to 1 nM | – | 31.6 to 200 nM | – |
| CN(C)C/C=C/C(=O)N1CCO[C@H](C(=O)Nc2cc(-c3ccc(O)cc3)cc3[nH]ncc23)C1 [Compound 11-2] | C (a pIC50 value between 6 and 6.7 (IC50 between 1 μM and 200 nM)) | E (a pKi value of 7 or below (Ki of 100 nM or above)) | B (a pKi value between 9 and 10 (Ki between 1 nM and 0.1 nM)) | A (a value of 3 or above) | – | – | – | – | – | – |
| C=CC(=O)N1CCC[C@H](Oc2nc(-c3ccc(O)c(Cl)c3)nc3[nH]ncc23)C1 [Compound 8-12] | C (a pIC50 value between 6 and 6.7 (IC50 between 1 μM and 200 nM)) | E (a pKi value of 7 or below (Ki of 100 nM or above)) | B (a pKi value between 9 and 10 (Ki between 1 nM and 0.1 nM)) | A (a value of 3 or above) | – | – | – | – | – | – |
| C=CC(=O)N1CC[C@H](Oc2cc(-c3ccc(O)c(Cl)c3)nc3[nH]nc(C)c23)C1 [Compound 1-32] | – | – | – | – | 200 to 1000 nM | > 100 nM | 0.1 to 1 nM | A (a value of 3 or above) | – | – |
| O=C(/C=C/CN1CCOCC1)N1CC(COc2cc(-c3ccc(O)cc3)cc3[nH]ncc23)C1 [Compound 3-129] | – | – | – | – | 200 to 1000 nM | > 100 nM | 0.1 to 1 nM | A (a value of 3 or above) | – | – |
| C=CC(=O)N1CC[C@H](Oc2nc(-c3ccc(O)c(Cl)c3)cc3[nH]nc(C)c23)C1 [Compound 1-35] | – | – | – | – | < 31.6 nM | 10 to 100 nM | < 0.1 nM | A (a value of 3 or above) | – | – |
| C=CC(=O)N1CCO[C@@H](C(=O)Nc2cc(-c3ccc(O)c(F)c3)cc3[nH]ncc23)C1 [Compound 13-3] | A (a pIC50 value≥7.5 (IC50≤32 nM)) | E (a pKi value of 7 or below (Ki of 100 nM or above)) | A (a pKi value≥10 (Ki≤0.1 nM)) | A (a value of 3 or above) | – | – | – | – | – | – |
| CN(C)C/C=C/C(=O)N1CC(CN(C)c2nc(-c3ccc(O)cc3)cc3[nH]ncc23)C1 [Compound 4-8] | – | E (a pKi value of 7 or below (Ki of 100 nM or above)) | B (a pKi value between 9 and 10 (Ki between 1 nM and 0.1 nM)) | – | – | – | – | B (a value of 2.3 to 3) | – | B (a pIC50 value between 6.7 (included) and 7.5 (IC50 between 200 nM and 32 nM)) |
| CN(C)C/C=C/C(=O)N1CC[C@H](COc2nc(-c3ccc(O)c(Cl)c3)cc3[nH]ncc23)C1 [Compound 2-9] | – | E (a pKi value of 7 or below (Ki of 100 nM or above)) | B (a pKi value between 9 and 10 (Ki between 1 nM and 0.1 nM)) | – | – | – | – | B (a value of 2.3 to 3) | – | B (a pIC50 value between 6.7 (included) and 7.5 (IC50 between 200 nM and 32 nM)) |
| CN(C)C/C=C/C(=O)N1CC[C@H](Oc2cc(-c3ccc(O)c(F)c3)cc3[nH]ncc23)C1 [Compound 1-4] | – | – | – | – | 200 to 1000 nM | > 100 nM | 0.1 to 1 nM | A (a value of 3 or above) | – | – |
| C=CC(=O)N1CC[C@H](Oc2cc(-c3ccc(O)c(F)c3F)cc3[nH]ncc23)C1 [Compound 1-13] | – | – | – | – | 31.6 to 200 nM | > 100 nM | 0.1 to 1 nM | B (a value of 2.3 to 3) | – | – |
| C=CC(=O)N1CCC(S(=O)(=O)c2cc(-c3ccc(O)cc3)cc3[nH]ncc23)CC1 [Compound 12-8] | – | – | – | A (a value of 3 or above) | – | > 100 nM | 0.1 to 1 nM | – | 200 to 1000 nM | – |
| C=CC(=O)N1CC(CC)(COc2cc(-c3ccc(O)c(F)c3)cc3[nH]ncc23)C1 [Compound 3-18] | – | E (a pKi value of 7 or below (Ki of 100 nM or above)) | A (a pKi value≥10 (Ki≤0.1 nM)) | – | – | – | – | A (a value of 3 or above) | – | B (a pIC50 value between 6.7 (included) and 7.5 (IC50 between 200 nM and 32 nM)) |
| CN(C)C/C=C/C(=O)N1CC(Oc2cc(-c3ccc(O)cc3)cc3[nH]ncc23)(C2CC2)C1 [Compound 5-13] | – | E (a pKi value of 7 or below (Ki of 100 nM or above)) | B (a pKi value between 9 and 10 (Ki between 1 nM and 0.1 nM)) | – | – | – | – | B (a value of 2.3 to 3) | – | B (a pIC50 value between 6.7 (included) and 7.5 (IC50 between 200 nM and 32 nM)) |
| O=C(/C=C/CN1CCSCC1)N1CC(COc2cc(-c3ccc(O)cc3)cc3[nH]ncc23)C1 [Compound 3-130] | – | – | – | – | 31.6 to 200 nM | > 100 nM | 0.1 to 1 nM | A (a value of 3 or above) | – | – |
| CN(C)C/C=C/C(=O)N1CCC(Nc2cc(-c3ccc(O)cc3)cc3[nH]ncc23)C(F)(F)C1 (centres unmarked) [Compound 7-5] | – | – | – | C (a value of 1.8 to 2.3) | – | 10 to 100 nM | 0.1 to 1 nM | – | 31.6 to 200 nM | – |
| CN(C)CC=CC(=O)N1CCCC(Oc2nc(-c3ccc(O)c(F)c3)cc3[nH]ncc23)C1 (centres unmarked) [Compound 8-9] | C (a pIC50 value between 6 and 6.7 (IC50 between 1 μM and 200 nM)) | E (a pKi value of 7 or below (Ki of 100 nM or above)) | B (a pKi value between 9 and 10 (Ki between 1 nM and 0.1 nM)) | B (a value of 2.3 to 3) | – | – | – | – | – | – |
| C=CC(=O)N1CC[C@H](COc2cc(-c3ccc(O)c(Cl)c3)nc3[nH]ncc23)C1 [Compound 2-16] | – | E (a pKi value of 7 or below (Ki of 100 nM or above)) | B (a pKi value between 9 and 10 (Ki between 1 nM and 0.1 nM)) | – | – | – | – | A (a value of 3 or above) | – | C (a pIC50 value between 6 and 6.7 (IC50 between 1 μM and 200 nM)) |
